Data as given in ChEMBL document CHEMBL2321730, “Development of κ opioid receptor antagonists” (J Med Chem, 2013).
Blank lines part the entries; values can stand above or below the compound they belong to. Where a SMILES comes first, the peptide text is derived from it. [ ]: non-standard residue; d: D form.

Key:
[1] = molecular target: T1, Kappa-type opioid receptor (Homo sapiens, UniProt P41145); experiment: Antagonist activity at KOR (unknown origin) by [35S]GTPgammaS binding assay
Mu-type opioid receptor = Mu-type opioid receptor (Homo sapiens, UniProt P35372); experiment: Antagonist activity at MOR (unknown origin) by [35S]GTPgammaS binding assay
Chain of Mu-type opioid receptor (P35372 whole entry): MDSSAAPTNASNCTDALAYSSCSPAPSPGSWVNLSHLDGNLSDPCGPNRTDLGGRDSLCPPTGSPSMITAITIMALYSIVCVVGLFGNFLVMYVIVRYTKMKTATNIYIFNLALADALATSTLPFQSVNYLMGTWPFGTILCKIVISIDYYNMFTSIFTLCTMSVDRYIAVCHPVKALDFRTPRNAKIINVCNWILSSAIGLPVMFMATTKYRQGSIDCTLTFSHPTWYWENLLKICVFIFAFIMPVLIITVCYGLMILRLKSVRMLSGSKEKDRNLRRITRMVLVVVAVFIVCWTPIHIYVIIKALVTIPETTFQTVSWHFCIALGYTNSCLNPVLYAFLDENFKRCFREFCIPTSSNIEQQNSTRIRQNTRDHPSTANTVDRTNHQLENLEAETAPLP

[2] = molecular target: Delta-type opioid receptor (Homo sapiens, UniProt P41143); experiment: Antagonist activity at DOR (unknown origin) by [35S]GTPgammaS assay; assay type: functional
Chain of Delta-type opioid receptor (P41143 whole entry): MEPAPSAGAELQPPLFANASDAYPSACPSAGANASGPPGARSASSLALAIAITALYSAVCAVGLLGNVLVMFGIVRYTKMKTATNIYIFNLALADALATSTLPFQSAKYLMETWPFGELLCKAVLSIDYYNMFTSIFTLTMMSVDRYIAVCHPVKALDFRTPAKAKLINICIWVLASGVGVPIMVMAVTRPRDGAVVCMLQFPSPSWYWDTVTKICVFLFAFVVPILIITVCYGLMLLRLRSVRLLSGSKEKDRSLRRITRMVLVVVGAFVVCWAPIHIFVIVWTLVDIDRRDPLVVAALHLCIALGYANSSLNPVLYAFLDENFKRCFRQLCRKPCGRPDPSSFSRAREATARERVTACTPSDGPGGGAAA

[3] = molecular target: T1, Kappa-type opioid receptor; experiment: Binding affinity to KOR (unknown origin)
[4] = molecular target: T1, Kappa-type opioid receptor; experiment: Inhibition of dynorphin A (1-13) NH2 binding to KOR (unknown origin) by adenylyl cyclase assay; assay type: functional
[5] = Displacement of DPDPE from DOR in guinea pig brain membrane fraction after 30 mins by scintillation counting analysis; assay type: cell membranes, Cavia porcellus
[6] = molecular target: Kappa-type opioid receptor (Rattus norvegicus, UniProt P34975); experiment: Displacement of [3H]diprenorphine from rat cloned KOR expressed in CHO cells after 90 mins by scintillation counting analysis
Chain of Kappa-type opioid receptor (Rattus norvegicus, UniProt P34975) (P34975 whole entry): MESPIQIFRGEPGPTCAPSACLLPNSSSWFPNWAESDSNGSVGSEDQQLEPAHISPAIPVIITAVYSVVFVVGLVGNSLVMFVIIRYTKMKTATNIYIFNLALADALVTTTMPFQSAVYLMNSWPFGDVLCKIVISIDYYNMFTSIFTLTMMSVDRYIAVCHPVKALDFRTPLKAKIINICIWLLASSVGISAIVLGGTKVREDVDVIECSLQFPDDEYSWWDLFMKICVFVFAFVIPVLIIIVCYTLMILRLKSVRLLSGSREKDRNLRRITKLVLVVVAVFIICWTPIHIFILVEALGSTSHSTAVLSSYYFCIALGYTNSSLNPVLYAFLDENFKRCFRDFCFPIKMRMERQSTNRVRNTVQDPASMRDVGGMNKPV

Mus musculus [7] = experiment: Antinociceptive activity in icv dosed C57B1/6J mouse assessed as tail withdrawal latency measured in every 10 mins for 1 hr by warm water tail withdrawal assay; assay type: functional, organism-based
Mus musculus [8] = experiment: Antinociceptive activity in C57B1/6J mouse at 10 nmol, icv administered 80 mins prior to U50488 addition by warm water tail withdrawal assay; assay type: functional
Rattus norvegicus [9] = experiment: In vivo receptor occupancy at MOR in po dosed Harlan Sprague-Dawley rat brain after 5.5 hrs by LC/MS/MS analysis; assay type: functional
Rattus norvegicus [10] = experiment: In vivo receptor occupancy at DOR in po dosed Harlan Sprague-Dawley rat brain after 5.5 hrs by LC/MS/MS analysis; assay type: functional

T1 sequence (P41145 whole entry): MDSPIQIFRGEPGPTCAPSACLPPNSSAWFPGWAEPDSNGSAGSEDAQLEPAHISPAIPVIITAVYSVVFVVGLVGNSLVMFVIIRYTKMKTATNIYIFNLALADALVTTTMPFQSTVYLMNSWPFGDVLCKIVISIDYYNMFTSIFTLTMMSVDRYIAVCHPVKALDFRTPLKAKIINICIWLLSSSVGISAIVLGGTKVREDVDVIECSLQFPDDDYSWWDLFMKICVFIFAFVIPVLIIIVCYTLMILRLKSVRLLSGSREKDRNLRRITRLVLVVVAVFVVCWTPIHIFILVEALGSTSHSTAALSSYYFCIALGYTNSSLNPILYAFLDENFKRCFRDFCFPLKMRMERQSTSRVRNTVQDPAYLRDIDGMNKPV

IC50 [1]: 77 nM | IC50 (Mu-type opioid receptor): > 30000 nM | IC50 [2]: > 30000 nM | Ki [3]: 0.5 nM
SMILES: O=C(Nc1cccc(NC(=O)c2cccc(N3CCCCC3)c2)c1)c1cccc(OC2CCN(CC3CC3)CC2)c1

SMILES: CC[C@H](C)[C@@H]1NC(=O)[C@H](CCCNC(=N)N)NC(=O)[C@@H](NC(=O)[C@H](Cc2ccccc2)NC(=O)CNC(=O)CNC(=O)[C@H](Cc2ccc(O)cc2)NCc2ccccc2)CC(=O)NC[C@@H](C(=O)N[C@@H](CCCNC(=N)N)C(=O)N2CCC[C@H]2C(=O)N[C@@H](CCCCN)C(N)=O)NC1=O
Kb [4]: 84 nM

SMILES: O=C1N[C@@H](Cc2ccccc2)C(=O)N2CCC[C@@H]2C(=O)N[C@@H](Cc2ccccc2)C(=O)N[C@H]1Cc1c[nH]c2ccccc12 (cyclo(FWF[dP]))
IC50 [5]: 2600 nM | Ki [6]: 35.4 nM | EC50 (Mus musculus [7]): 3.71 nmol

SMILES: O=C1N[C@H](Cc2c[nH]c3ccccc23)C(=O)N[C@@H](Cc2ccccc2)C(=O)N2CCC[C@@H]2C(=O)N[C@H]1Cc1ccccc1 (cyclo(F[dP]F[dW]))
Activity (Mus musculus [8]): 10% | Ki [6]: 30.6 nM

SMILES: Cc1cc(C)cc([C@@H]2CCCN2Cc2ccc(Oc3ccc(C(N)=O)cc3F)cc2)c1 [ATICAPRANT]
ED50 (Rattus norvegicus [9]): > 30 mg/kg | ED50 (Rattus norvegicus [10]): > 30 mg/kg
